Data published in PMC6797808, “Fucosylated inhibitors of recently identified bangle lectin from Photorhabdus asymbiotica” (Scientific Reports, 2019).
Converted amounts (≈) assume the structure as drawn. Marks after values point to notes of the source that are not given here.

Experiments:
PHL [1] = target: T1, PHL (Photorhabdus asymbiotica, UniProt C7BLE4); assay: SPR competitive inhibition of PHL binding to α-L-fucoside sensor chip; conditions: for IC50: 25 °C, three independent measurements; for β L-Fuc (affinity improvement factor): IC50,basic unit/(valency × IC50,ligand), basic unit L-Fuc; for PotencyL-Fuc: IC50 L-fucose / IC50 ligand
T1 sequence (C7BLE4 entry or part of it): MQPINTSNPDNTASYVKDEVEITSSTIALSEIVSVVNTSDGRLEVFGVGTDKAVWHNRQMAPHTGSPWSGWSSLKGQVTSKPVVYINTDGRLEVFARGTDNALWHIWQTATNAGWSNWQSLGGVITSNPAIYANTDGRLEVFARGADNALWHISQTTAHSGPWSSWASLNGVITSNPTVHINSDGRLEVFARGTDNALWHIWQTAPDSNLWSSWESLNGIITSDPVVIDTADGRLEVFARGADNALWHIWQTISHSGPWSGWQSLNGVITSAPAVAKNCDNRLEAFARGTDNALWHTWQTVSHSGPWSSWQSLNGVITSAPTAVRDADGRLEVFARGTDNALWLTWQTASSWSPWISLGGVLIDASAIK
Experimental: To analyse the competitive inhibition of PHL binding to a multivalent surface, the surface plasmon resonance (SPR) technique was employed. A sensor chip presenting α-L-fucopyranoside residues was treated with a constant concentration of PHL, while an increasing concentration of the ligands was used to determine IC50 (Table 2, Fig. 3). […] To assess the contribution of valency to the affinity increase, an affinity improvement factor β was calculated as the relationship IC50,basic unit/(valency × IC50,ligand)[30].
Surface plasmon resonance (SPR) experiments were performed on a BIAcore T200 instrument (GE Healthcare, UK) at 25 °C, using buffer A supplemented with 0.05% Tween 20 as a running buffer. α-L-fucoside was immobilized onto CM5 sensor chip (GE Healthcare, UK) covered with a carboxymethylated dextran matrix. The sensor chip surface was activated with N-ethyl-N-(3-dimethylaminopropyl)carbodiimide/N-hydroxysuccinimide solution and then coated with streptavidin using the manufacturer’s standard protocol using HBS buffer (10 mM HEPES, 150 mM NaCl, 0.05% Tween 20, pH 7. 5). Unreacted groups were blocked with 1 M ethanolamine-HCl, pH 8.5. Biotinylated carbohydrate (biotinilated monomeric probes, Lectinity, Russia) was injected onto particular measuring channel and pure biotin on blank channel at a flow rate of 5 μl/min.
SPR inhibition measurements were carried out on measuring channel with L-fucoside at a flow rate of 5 µl/min. PHL was diluted to a concentration of 20 μg/ml by the buffer A supplemented with 0.05% Tween 20, mixed 1:1 (v/v) with various concentrations of inhibitors (500–5 μM) in the same buffer and injected onto the sensor chip. The response of lectin bound to the sugar surface at equilibrium was plotted against the concentration of inhibitor in order to determine IC50 (concentration of inhibitor resulting in 50% inhibition of binding). As IC50 is not a constant and depends on the experimental set-up, a parameter called potency was used for characterization. The potency of a tested inhibitor is the ratio of IC50 of a chosen standard inhibitor (in this case L-fucose) and the inhibitor in question. Pure PHL lectin was used as a control (0% inhibition) and channel with pure biotin served as a blank. IC50 was determined from triplicates.

[2] = tested on: P. asymbiotica subsp. australis cells; assay: Cell aggregation (cross-linking) assay; format: cell-based, Photorhabdus asymbiotica subsp. australis; conditions: three independent measurements
Source text: Because of the aggregation of PHL by calixarenes and dendrimers during SPR and ITC experiments, we decided to compare tetravalent compounds at a higher level. We performed a series of in vitro aggregation assays to reveal their aggregation properties towards P. asymbiotica subsp. australis (Table 4, Fig. 5). Prior to each assay, we confirmed the absence of aggregates in two negative controls – bacterial cells in PBS buffer and in the presence of azide 1 as a monomer. With all chosen compounds, we observed bacterial aggregates of a variable size that confirmed that they are capable of interacting with a cell surface. This effect may be caused by interaction of the multivalent inhibitors with PHL or other receptors. The concentration of the first appearance of aggregates varied according to the nature of the ligand used. […] An unexpected observation was that calixarene 7 had the lowest aggregation potential. In contrast to other techniques (hemagglutination, SPR and ITC), where calixarenes 6 and 7 provided similar results, during cross-linking experiments calixarene 7 was four times worse than calixarene 6. At the same time, both tetrameric calixarenes 6 and 7 are in a 1,3-alternate conformation with the two-faced presentation of the fucopyranosyl epitopes on opposite regions probably occupying a similar spatial orientation. The only difference is the tert-Bu group on the upper rim in calixarene 6, which might contribute to nonpolar interactions with whole P. asymbiotica cells.
P. asymbiotica subsp. australis was inoculated from stock cells stored at −80 °C into a standard LB media and were grown in 30 °C under an orbital shaking overnight. Bacterial growth was tracked by measuring the optical density of the broth at 600 nm (OD600) using a spectrophotometer (Biochrom Ltd., BioPhotometer WGA CO 8000 Biowave). Cells were harvested when reaching an OD600 = 0.5. The culture was centrifuged at 4,300 g and room temperature for 2 minutes (Minispin, Eppendorf, Germany) and cells were then washed three times with PBS buffer. Cells were diluted in PBS to OD600 of 2.0 and kept in a fridge until performing the aggregation assay.
P. asymbiotica subsp. australis cells and fucosylated compounds in a concentration ranging from 50 mM to 3.125 mM were gently mixed in a 9:1 (v/v) ratio. The reaction mixtures were left at room temperature for 10 minutes. 5 µl of reaction mixture was then transferred onto a microscope slide and observed under a fluorescence microscope (OLYMPUS IX81 Microscope IX81F-3 with IX2-UCB-2 Controller and X-Cite 120PC Q; Olympus and Excelitas Technologies, Japan, resp. USA). As a negative control, bacterial cells with/without azide 1 as a monomer were used. Three independent measurements were performed.

PHL [3] = target: T1, PHL; assay: Hemagglutination inhibition assay with PHL (papain-treated human RBCs O); format: cell-based; conditions: for MIC (minimal inhibitory concentration, hemagglutination by PHL): RBC O, two independent measurements; for PotencyL-Fuc: MIC L-fucose / MIC ligand; for β L-Fuc (affinity improvement factor): MICbasic unit/(valency × MICligand), basic unit L-Fuc
Experimental: The set of potential ligands 1–10 with different levels of fucosylation was tested, and their inhibition potency on hemagglutination by PHL was assessed (Table 1, Fig. 2). […] To assess the contribution of valency to the affinity increase, an affinity improvement factor β was calculated as the relationship MICbasic unit/(valency × MICligand).
Human red blood cells (RBCs) O were processed according to previously published work[16]. In brief, RBCs O treated with sodium citrate were washed four times by PBS buffer (137 mM NaCl, 2.7 mM KCl, 8 mM Na2HPO4, 1.47 mM KH2PO4, pH 7.4), diluted to 50% by PBS with 0.005% (w/w) sodium azide and treated by 0.1% papain for the duration of 30 minutes.
Hemagglutination inhibition assay was performed for specificity and semi-quantitative affinity of the PHL interaction with the compounds. All carbohydrate inhibitors in 50 mM starting concentration were serially diluted in the PBS buffer and used for a determination of the lowest inhibiting concentration. As a blank, the PBS buffer supplemented with the appropriate amount of DMSO was used in order to exclude potential interference with the interaction. The individual samples were mixed with the lectin in concentration 2 mg/ml in a 5 μl:5 μl ratio. Thereafter, 10 μl of 10% RBCs O in PBS buffer was added, thoroughly mixed and incubated for 10 minutes at room temperature. Following incubation, the mixture was again mixed and the reaction was observed on microscope slides using Levenhuk 2L NG microscope with Levenhuk D2L digital camera (Levenhuk, USA). Imagines were obtained via software ToupView for Windows (Levenhuk). The positive (PHL without inhibitor) and negative control (reaction without PHL) were prepared and processed in the same way using the appropriate volume of PBS buffer instead of the not included components. The lowest concentration of inhibitor able to inhibit agglutination was determined and compared with the standard (L-fucose). Minimal inhibitory concentrations (MIC) of synthesised inhibitors were determined from two independent measurements.

PHL [4] = target: T1, PHL; assay: Isothermal titration calorimetry of PHL with ligands; format: binding
Source text: The binding of PHL to different α-L-fucoside compounds was further characterized by isothermal titration calorimetry (ITC), enabling determination of the complete thermodynamic profile of the molecular interactions (Table 3, Fig. 4). […] Because of this, it was not possible to evaluate the data, despite the obvious interaction. The dendrimers also cross-linked/aggregated the protein as with calixarenes, however the curves provided clear outcomes with an affinity in the low micromolar range. The dissociation constants (KD) of all dendrimers correlate with their valency – the higher number of fucose, the more decreased KD. […] The stoichiometry value n corresponds to the number of terminal fucoses per ligand molecule. The n value decreases from 4 to 1 as the number of fucose units increases from 1 to 12 (Table 3).
PHL protein in buffer A was equilibrated at room temperature at least for 30 min before ITC measurement. All ITC experiments were performed using ITC200 calorimeter (Malvern Panalytical, UK) at 25 °C. Carbohydrate ligands dissolved in buffer A were used at different concentrations. Protein in the calorimeter cell (50 μM) was titrated by consecutive additions (2 μl) of the ligand (1.5–5 mM) in the syringe while stirring at 1000 rpm. Integrated heat effects were analysed by nonlinear regression using a single-site binding model and global fitting in Origin 7 software (Microcal Instruments)[37]. The thermodynamic parameters of synthesised inhibitors were determined from two independent measurements.

Row | SMILES | IC50 (PHL [1]) [µM] | β L-Fuc (affinity improvement factor) (PHL [1]) | PotencyL-Fuc (PHL [1]) | β Azide1 (affinity improvement factor) (PHL [1]; basic unit azide 1) | β Azide1 (affinity improvement factor) (PHL [1]; basic unit azide 1, listed as calixarene 6) | PotencyAzide1 (PHL [1]; relative to azide 1) | The lowest concentration able to aggregate P. asymbiotica cells [2] [mM] | MIC (minimal inhibitory concentration, hemagglutination by PHL) (PHL [3]) | PotencyL-Fuc (PHL [3]; hemagglutination) | β L-Fuc (affinity improvement factor) (PHL [3]; hemagglutination) | β Azide1 (affinity improvement factor) (PHL [3]; hemagglutination, basic unit azide 1) | PotencyAzide1 (PHL [3]; hemagglutination, relative to azide 1) | Kd (PHL [4]; ITC at 25 °C) [µM] | −TΔS (PHL [4]; ITC at 25 °C) [kcal/mol] | −ΔG (PHL [4]; ITC at 25 °C) [kcal/mol] | −ΔH (PHL [4]; ITC at 25 °C) [kcal/mol] | n (stoichiometry), fixed during the fitting procedure (PHL [4]; ITC at 25 °C, fixed value based on α-Me-Fuc measurement and PHL/BGH crystal structure) | Potency L-Fuc (PHL [4]; ITC, KD L-fucose / KD ligand) | β L-Fuc (affinity improvement factor) (PHL [4]; ITC, KD,basic unit/(valency × KD,ligand), basic unit L-Fuc)
1 | C[C@@H]1O[C@@H](CCn2cc(COc3c4cc(C(C)(C)C)cc3Cc3cc(C(C)(C)C)cc(c3OCc3cn(CC[C@@H]5O[C@@H](C)[C@@H](O)[C@@H](O)[C@@H]5O)nn3)Cc3cc(C(C)(C)C)cc(c3OCc3cn(CC[C@@H]5O[C@@H](C)[C@@H](O)[C@@H](O)[C@@H]5O)nn3)Cc3cc(C(C)(C)C)cc(c3OCc3cn(CC[C@@H]5O[C@@H](C)[C@@H](O)[C@@H](O)[C@@H]5O)nn3)C4)nn2)[C@@H](O)[C@H](O)[C@@H]1O [Calixarene 6] | 0.195 ± 0.023 | 464 | 1,853 | 15 | approximately 15 | 59 | 1.25 | 100 µM (≈ 167 µg/mL) | 31.3 | 7.8 | 0.5 | 2 |  |  |  |  |  |  | 
2 | C[C@H](O)[C@@H](O)[C@@H](O)[C@H](O)C=O [L -Fuc, L-fucose, reference compound] | 362 ± 33 | 1 | 1 |  |  |  |  | 3,200 μM | 1 | 1 |  |  | 1400 | 10.3 ± 0.239 | 3.9 ± 0.096 | 14.2 ± 0.239 | 3* | 1 | 1
